Measurements reported in patent US8383814B2, “Substituted tetrahydropyran spiro pyrrolidinone and piperidinone, preparation and therapeutic use thereof” (Sanofi, priority 2008, dated 2013).

Assays:
[1] = target: T1, rhesus (Macacca Mulatta) H3 receptor (Macaca mulatta, UniProt Q865E1); assay: Rhesus H3 radioligand binding assay ([3H]-methylhistamine displacement, WGA SPA beads); set-up: species or system rhesus monkey (Macacca Mulatta); conditions: [3H]-methylhistamine 2 nM; membranes of Flp-In T-REx 293 cells expressing rhesus H3; Cheng-Prusoff
T1 construct: pcDNA5/FRT/TO (Invitrogen) containing the rhesus monkey (Macacca Mulatta) 445 amino acid H3 receptor
T1 sequence (Q865E1 1-445): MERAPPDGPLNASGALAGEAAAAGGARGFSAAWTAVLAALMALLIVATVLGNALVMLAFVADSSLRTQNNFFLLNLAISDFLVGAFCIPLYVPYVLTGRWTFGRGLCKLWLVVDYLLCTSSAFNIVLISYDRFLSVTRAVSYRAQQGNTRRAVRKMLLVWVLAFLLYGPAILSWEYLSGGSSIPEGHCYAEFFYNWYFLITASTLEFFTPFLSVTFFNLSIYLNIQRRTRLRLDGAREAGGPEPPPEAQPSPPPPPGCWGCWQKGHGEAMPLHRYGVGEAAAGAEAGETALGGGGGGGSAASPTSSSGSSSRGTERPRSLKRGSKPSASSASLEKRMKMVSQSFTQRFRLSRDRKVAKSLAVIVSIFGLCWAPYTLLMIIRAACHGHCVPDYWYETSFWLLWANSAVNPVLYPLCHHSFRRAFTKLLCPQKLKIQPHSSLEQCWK
Protocol: (§1) Rhesus H3 membranes were prepared from the Flp-In T-REx 293 Cell Line (Invitrogen) stably transfected with pcDNA5/FRT/TO (Invitrogen) containing the rhesus monkey (Macacca Mulatta) 445 amino acid H3 receptor. (Genbank #AY231164). Stably transfected cultures were amplified in tissue culture flasks by standard tissue culture methods and induced to express rhesus H3 by exposure to 500 ng/ml tetracycline (Cellgro) for 24 hours. After induction, cells were dissociated from flasks utilizing Cell Stripper (Cellgro). Cells were centrifuged (1K×g, 5 min) and pellet frozen in an ethanol-dry ice bath to disrupt cell membranes. Frozen cell pellet was re-suspended in 5 mM HEPES (pH 7.4, Invitrogen) at 10 ml/1000 cm2 of harvested cells. The cell suspension was drawn through an 18 gauge needle (2-3×) followed by a 23 gauge needle (2-3×) to further disrupt cell membranes. The cell suspension was centrifuged (40K×g, 30 min). Cell membrane pellet was re-suspended in 5 mM HEPES (pH 7.4, Invitrogen) at a final protein concentration of 10 mg/ml. Rhesus H3 membranes were stored under liquid nitrogen prior to use in [3H]-Methylhistamine and GTP S radioligand binding assays.
Rhesus H3 radioligand binding assay was performed using rhesus H3 receptor membranes (prepared as described above), [3H]-Methylhistamine (Perkin Elmer) and WGA SPA beads (wheat germ agglutinin scintillation proximity assay) beads (Amersham). The assay was performed in 96-well Opti-Plates (Packard). Each reaction contained 50 μl rhesus H3 membranes (20-30 μg total protein), 50 μl WGA SPA beads (0.1 μg) and 50 μl of 83 Ci/mmol [^3H]-Methylhistamine (final concentration 2 nM) and 50 μl of tested compound. The compounds of this invention and/or vehicle were diluted with binding buffer from 10 mM DMSO stocks. Assay plates were sealed with TopSeal (Perkin Elmer) and mixed on shaker (25° C., 1 hour). Assay plates were read on TopCount scintillation counter (Packard). Results were analyzed by Hill transformation and Ki values were determined by Cheng-Prusoff equation.

rhesus H3 receptor = assay: GTPγS radioligand binding assay: inhibition of rhesus H3 constitutive functional activity in cell membranes (inverse agonism); format: biochemical, rhesus monkey (Macacca Mulatta); set-up: concentration or dose not given beside the values; conditions: negative value = below basal level
Protocol: as §1

| Compound | Ki [1] [nM] | Inverse Agonism: % inhibition of Basal GTPγS binding in Rhesus H3 (rhesus H3 receptor) [%] |
| --- | --- | --- |
| C[C@H]1CCCCN1C1CCN(c2ccc(N3CCC4(CCOCC4)C3=O)c(C(F)(F)F)c2)CC1 [Example 23, 2-[4-((2S,3′S)-2-Methyl-[1,4]bipiperidinyl-1′-yl)-2-trifluoromethyl-phenyl]-8-oxa-2-aza-spiro[4.5]decan-1-one] | 1.5 | −29 |
| CCC1CCCN1C1CCN(c2ccc(N3CCC4(CCOCC4)C3=O)c(C(F)(F)F)c2)CC1 (centres unmarked) [Example 18, 2-{4-[4-(2-Ethyl-pyrrolidin-1-yl)-piperidin-1-yl]-2-trifluoromethyl-phenyl}-8-oxa-2-aza-spiro[4.5]decan-1-one] | 4.3 | −35 |
| COCC1CCCN1C1CCN(c2ccc(N3CCC4(CCOCC4)C3=O)cc2)C1 (centres unmarked) [Example 15, 2-[4-(2-Methoxymethyl-[1,3′]bipyrrolidinyl-1′-yl)-phenyl]-8-oxa-2-aza-spiro[4.5]decan-1-one] | 190 | −26 |
| C[C@@H]1CCCN1[C@@H]1CCN(c2ccc(N3CCCC4(CCOCC4)C3=O)cc2)C1 [Example 35, 2-[4-((2R,3′R)-2-Methyl-[1,3′]bipyrrolidinyl-1′-yl)-phenyl]-9-oxa-2-aza-spiro[5.5]undecan-1-one] | 0.7 | −13 |
| C[C@H]1CCCN1C1CCN(c2ccc(N3CCC4(CCOCC4)C3=O)c(F)c2)CC1 [Example 10, 2-{2-Fluoro-4-[4-((2S,3′S)-2-methyl-pyrrolidin-1-yl)piperidin-1-yl]-phenyl}-8-oxa-2-aza-spiro[4.5]decan-1-one] | 0.16 | −33 |
| C[C@H]1CCCN1[C@H]1CCN(c2ccc(N3CCC4(CCOCC4)C3=O)c(C(F)(F)F)c2)C1 [Example 22, 2-[4-((2S,3′S)-2-Methyl-[1,3′]bipyrrolidinyl-1′-yl)-2-trifluoromethyl-phenyl]-8-oxa-2-aza-spiro[4.5]decan-1-one] | 8.6 | −21 |
| CCc1cc(N2CCC(N3CCCC3COC)CC2)ccc1N1CCC2(CCOCC2)C1=O (centres unmarked) [Example 25, 2-{2-Ethyl-4-[4-(2-methoxymethyl-pyrrolidin-1-yl)piperidin-1-yl]-phenyl}-8-oxa-2-aza-spiro[4.5]decan-1-one] | 4.9 | −13 |
| Cc1cc(N2CC[C@@H](N3CCC[C@H]3C)C2)ccc1N1CCCC2(CCOCC2)C1=O [Example 32, 2-[2-Methyl-4-((2R,3′R)-2-methyl-[1,3′]bipyrrolidinyl-1′-yl)-phenyl]-9-oxa-2-aza-spiro[5.5]undecan-1-one] | 11 | −15 |
| Cc1cc(N2CC[C@H](N3CCC[C@H]3C)C2)ccc1N1CCCC2(CCOCC2)C1=O [Example 28, 2-[2-Methyl-4-((2R,3′S)-2-methyl-[1,3′]bipyrrolidinyl-1′-yl)-phenyl]-9-oxa-2-aza-spiro[5.5]undecan-1-one] | 13 | −13 |
| C[C@H]1CCCN1[C@@H]1CCN(c2ccc(N3CCCC4(CCOCC4)C3=O)c(F)c2)C1 [Example 40, 2-[2-Fluoro-4-((2S,3′R)-2-Methyl-[1,3′]bipyrrolidinyl-1′-yl)-phenyl]-9-oxa-2-aza-spiro[5.5]undecan-1-one] | 0.09 | −18 |
| Cc1cc(N2CC[C@@H](N3CCC[C@H]3C)C2)ccc1N1CCC2(CCOCC2)C1=O [Example 29, 2-[2-Methyl-4-((2R,3′R)-2-methyl-[1,3′]bipyrrolidinyl-1′-yl)-phenyl]-8-oxa-2-aza-spiro[4.5]decan-1-one] | 28 | −28 |
| CCCC1CCCN1C1CCN(c2ccc(N3CCC4(CCOCC4)C3=O)c(C(F)(F)F)c2)C1 (centres unmarked) [Example 20, 2-[4-(2-Propyl-[1,3′]bipyrrolidinyl-1′-yl)-2-trifluoromethyl-phenyl]-8-oxa-2-aza-spiro[4.5]decan-1-one] | 650 | −12 |
| C[C@H]1CCCN1[C@H]1CCN(c2ccc(N3CCC4(CCOCC4)C3=O)cc2)C1 [Example 3, 2-[4-((2S,3′S)-2-Methyl-[1,3′]bipyrrolidinyl-1′-yl)-phenyl]-8-oxa-2-aza-spiro[4.5]decan-1-one] | 0.63 | −26 |
| C[C@H]1CCCN1[C@@H]1CCN(c2ccc(N3CCCC4(CCOCC4)C3=O)cc2)C1 [Example 36, 2-[4-((2S,3′R)-2-Methyl-[1,3′]bipyrrolidinyl-1′-yl)-phenyl]-9-oxa-2-aza-spiro[5.5]undecan-1-one] | 0.26 | −10 |
| C[C@@H]1CCCN1[C@H]1CCN(c2ccc(N3CCCC4(CCOCC4)C3=O)c(F)c2)C1 [Example 38, 2-[2-Fluoro-4-((2R,3′S)-2-Methyl-[1,3′]bipyrrolidinyl-1′-yl)-phenyl]-9-oxa-2-aza-spiro[5.5]undecan-1-one] | 1.3 | −22 |
| C[C@H]1CCCN1[C@H]1CCN(c2ccc(N3CCCC4(CCOCC4)C3=O)cc2)C1 [Example 37, 2-[4-((2S,3′S)-2-Methyl-[1,3′]bipyrrolidinyl-1′-yl)-phenyl]-9-oxa-2-aza-spiro[5.5]undecan-1-one] | 0.1 | −20 |
| C[C@@H]1CCCN1[C@@H]1CCN(c2ccc(N3CCCC4(CCOCC4)C3=O)c(F)c2)C1 [Example 39, 2-[2-Fluoro-4-((2R,3′R)-2-Methyl-[1,3′]bipyrrolidinyl-1′-yl)-phenyl]-9-oxa-2-aza-spiro[5.5]undecan-1-one] | 0.75 | −13 |
| CCCC1CCCN1C1CCN(c2ccc(N3CCC4(CCOCC4)C3=O)c(CC)c2)CC1 (centres unmarked) [Example 24, 2-{2-Ethyl-4-[4-(2-propyl-pyrrolidin-1-yl)-piperidin-1-yl]-phenyl}-8-oxa-2-aza-spiro[4.5]decan-1-one] | 18 | −18 |
| Cc1cc(N2CC[C@H](N3CCC[C@H]3C)C2)ccc1N1CCC2(CCOCC2)C1=O [Example 6] | 38 | −36 |
| Cc1cc(N2CCC(N3CCCC3C)C2)ccc1N1CCC2(CCOCC2)C1=O (centres unmarked) [Example 31, 2-[2-Methyl-4-(2-methyl-[1,3′]bipyrrolidinyl-1′-yl)-phenyl]-8-oxa-2-aza-spiro[4.5]decan-1-one] | 6.2 | −28 |
| C[C@H]1CCCCN1C1CCN(c2ccc(N3CCC4(CCOCC4)C3=O)c(F)c2)CC1 [Example 12, 2-[2-Fluoro-4-((2S,3′S)-2-methyl-[1,4]bipiperidinyl-1′-yl)-phenyl]-8-oxa-2-aza-spiro[4.5]decan-1-one] | 0.45 | −22 |
| Cc1cc(N2CCC(N3CCC[C@@H]3C)CC2)ccc1N1CCC2(CCOCC2)C1=O [Example 5, 2-{2-Methyl-4-[4-((2S,3′S)-2-methyl-pyrrolidin-1-yl)-piperidin-1-yl]-phenyl}-8-oxa-2-aza-spiro[4.5]decan-1-one] | 0.7 | −11 |
| CCc1cc(N2CCC(N3CCC[C@@H]3C)C2)ccc1N1CCC2(CCOCC2)C1=O (some centres unmarked) [Example 26] | 0.13 | – |
| C[C@H]1CCCN1C1CCN(c2ccc(N3CCC4(CCOCC4)C3=O)cc2)CC1 [Example 16, 2-{4-[4-((2S,3′S)-2-Methyl-pyrrolidin-1-yl)-piperidin-1-yl]-phenyl}-8-oxa-2-aza-spiro[4.5]decan-1-one] | 0.52 | −29 |
| CCCC1CCCN1C1CCN(c2ccc(N3CCC4(CCOCC4)C3=O)c(F)c2)C1 (centres unmarked) [Example 9, 2-[2-Fluoro-4-(2-propyl-[1,3′]bipyrrolidinyl-1′-yl)-phenyl]-8-oxa-2-aza-spiro[4.5]decan-1-one] | 170 | −30 |
| CCCC1CCCN1C1CCN(c2ccc(N3CCC4(CCOCC4)C3=O)cc2)CC1 (centres unmarked) [Example 14, 2-{4-[4-(2-Propyl-pyrrolidin-1-yl)-piperidin-1-yl]-phenyl}-8-oxa-2-aza-spiro[4.5]decan-1-one] | 13 | −33 |
| C[C@H]1CCCN1[C@H]1CCN(c2ccc(N3CCC4(CCOCC4)C3=O)cc2F)C1 [Example 4, 2-[3-Fluoro-4-((2S,3′S)-2-methyl-[1,3′]bipyrrolidinyl-1′-yl)-phenyl]-8-oxa-2-aza-spiro[4.5]decan-1-one] | 2.1 | −31 |
